Source: patent US20040204423A1, “Crystalline antifungal polymorph” (priority 1997, published 2004)

Test: Solid-state stability of polymorph Form I: conversion into other forms under normal storage and stress conditions
Assay type: physicochemical
From the text: The three crystalline polymorphic forms of the compound of formula designated as Form 1, II and III can readily be distinguished from one another by examination of the characteristic x-ray Diffraction patterns (see FIGS. 1-3), the characteristic infrared spectra (see FIGS. 4-6) and the characteristic Differential Scanning Calorimetry ([…]) thermograms (FIGS. 7-9).

Measured: conversion into any other form

CCC([C@H](C)O)n1ncn(-c2ccc(N3CCN(c4ccc(OC[C@@H]5CO[C@@](Cn6cncn6)(c6ccc(F)cc6F)C5)cc4)CC3)cc2)c1=O (single isomer, unassigned; (-)) [Form 1]
did not convert into any other form: normal storage conditions (15′-30° C. and protected from light) | stress condition: 75% relative humidity at 40° C. for 6 weeks | stress condition: 75° C. for 6 weeks | stress condition: 97% relative humidity at ambient temperature for 2 minutes | stress condition: 150° C. for 2 hours
